Assay results published in ChEMBL document CHEMBL3525933 (Drug Metab Dispos, 2012).

Experiments:
[1] = AUC(0 to infinity) in pseudo-germ free Wistar rat at 400 mg/kg, po administered as single dose by HPLC-DAD analysis; format: ADME, organism-based; set-up: time infinity, dose 400 mg/kg, route oral; conditions: plasma
[2] = Drug excretion in pseudo-germ free Wistar rat feces assessed as unchanged drug level at 400 mg/kg, po administered as single dose by HPLC-DAD analysis; format: ADME, organism-based; set-up: dose 400 mg/kg, route oral; conditions: in vivo
[3] = Drug excretion in conventional Wistar rat urine assessed as norathyriol metabolite level at 400 mg/kg, po administered as single dose by HPLC-DAD analysis; format: ADME, organism-based; set-up: dose 400 mg/kg, route oral; conditions: in vivo
Plasma [4] = assay: Drug metabolism in pseudo-germ free Wistar rat plasma assessed as norathyriol metabolite formation at 400 mg/kg, po administered as single dose by HPLC-DAD analysis; format: ADME, organism-based; set-up: dose 400 mg/kg, route oral; conditions: in vivo
[5] = Tmax in streptozotocin-induced diabetic Wistar rat at 400 mg/kg, po administered as single dose by HPLC-DAD analysis; format: ADME, organism-based; set-up: dose 400 mg/kg, route oral; conditions: in vivo
Plasma [6] = assay: Drug level in streptozotocin-induced diabetic Wistar rat plasma treated with mangiferin at 400 mg/kg, po administered as single dose by HPLC-DAD analysis; format: ADME, organism-based; set-up: dose 400 mg/kg, route oral; conditions: in vivo
[7] = Cmax in streptozotocin-induced diabetic Wistar rat at 400 mg/kg, po administered as single dose by HPLC-DAD analysis; format: ADME, organism-based; set-up: dose 400 mg/kg, route oral; conditions: in vivo
[8] = Drug excretion in pseudo-germ free Wistar rat urine assessed as 1,7-dihydroxyxanthone metabolite level at 400 mg/kg, po administered as single dose by HPLC-DAD analysis; format: ADME, organism-based; set-up: dose 400 mg/kg, route oral; conditions: in vivo
[9] = Cmax in pseudo-germ free Wistar rat at 400 mg/kg, po administered as single dose by HPLC-DAD analysis; format: ADME, organism-based; set-up: dose 400 mg/kg, route oral; conditions: in vivo
[10] = AUC(0 to t) in streptozotocin-induced diabetic Wistar rat at 400 mg/kg, po administered as single dose by HPLC-DAD analysis; format: ADME, organism-based; set-up: dose 400 mg/kg, route oral; conditions: plasma
[11] = Drug excretion in conventional Wistar rat feces assessed as 1,7-dihydroxyxanthone metabolite level at 400 mg/kg, po administered as single dose by HPLC-DAD analysis; format: ADME, organism-based; set-up: dose 400 mg/kg, route oral; conditions: in vivo
Plasma [12] = assay: Stability in Wistar rat plasma measured within three freeze thaw cycles by HPLC-DAD analysis; format: ADME, cell-free
[13] = AUC(0 to t) in conventional Wistar rat at 400 mg/kg, po administered as single dose by HPLC-DAD analysis; format: ADME, organism-based; set-up: dose 400 mg/kg, route oral; conditions: plasma
Plasma [14] = assay: Stability in Wistar rat plasma measured after storage at -80 degC for 20 days by HPLC-DAD analysis; format: ADME, cell-free; conditions: 480 h
[15] = Apparent oral clearance in streptozotocin-induced diabetic Wistar rat at 400 mg/kg, po administered as single dose by HPLC-DAD analysis; format: ADME, organism-based; set-up: dose 400 mg/kg, route oral; conditions: in vivo
[16] = Drug excretion in streptozotocin-induced diabetic Wistar rat urine assessed as 1,7-dihydroxyxanthone metabolite level at 400 mg/kg, po administered as single dose by HPLC-DAD analysis; format: ADME, organism-based; set-up: dose 400 mg/kg, route oral; conditions: in vivo
[17] = Tmax in pseudo-germ free Wistar rat at 400 mg/kg, po administered as single dose by HPLC-DAD analysis; format: ADME, organism-based; set-up: dose 400 mg/kg, route oral; conditions: in vivo
Plasma [18] = assay: Drug metabolism in conventional Wistar rat plasma assessed as 1,7-dihydroxyxanthone metabolite formation at 400 mg/kg, po administered as single dose by HPLC-DAD analysis; format: ADME, organism-based; set-up: dose 400 mg/kg, route oral; conditions: in vivo
Plasma [19] = assay: Drug recovery in Wistar rat plasma at 500 ng/ml by HPLC-DAD analysis; format: ADME, cell-free
Plasma [20] = assay: Drug uptake in pseudo-germ free Wistar rat plasma at 400 mg/kg, po administered as single dose by HPLC-DAD analysis; format: ADME, organism-based; set-up: dose 400 mg/kg, route oral; conditions: in vivo
Plasma [21] = assay: Stability in Wistar rat plasma measured for 24 hrs at room temperature by HPLC-DAD analysis; format: ADME, cell-free
Plasma [22] = assay: Drug uptake in streptozotocin-induced diabetic Wistar rat plasma at 400 mg/kg, po administered as single dose by HPLC-DAD analysis; format: ADME, organism-based; set-up: dose 400 mg/kg, route oral; conditions: in vivo
Plasma [23] = assay: Drug metabolism in Wistar rat plasma assessed as retention time by HPLC-DAD analysis; format: ADME, cell-free
[24] = MRT(0 to infinity) in conventional Wistar rat at 400 mg/kg, po administered as single dose by HPLC-DAD analysis; format: ADME, organism-based; set-up: dose 400 mg/kg, route oral; conditions: in vivo
[25] = Drug excretion in conventional Wistar rat urine assessed as unchanged drug level at 400 mg/kg, po administered as single dose by HPLC-DAD analysis; format: ADME, organism-based; set-up: dose 400 mg/kg, route oral; conditions: in vivo
Plasma [26] = assay: Drug recovery in Wistar rat plasma at 2000 ng/ml by HPLC-DAD analysis; format: ADME, cell-free
[27] = Elimination half life in streptozotocin-induced diabetic Wistar rat at 400 mg/kg, po administered as single dose by HPLC-DAD analysis; format: ADME, organism-based; set-up: dose 400 mg/kg, route oral; conditions: in vivo, read-out: beta t1/2 (converted)
[28] = Drug excretion in pseudo-germ free Wistar rat feces assessed as 1,7-dihydroxyxanthone metabolite level at 400 mg/kg, po administered as single dose by HPLC-DAD analysis; format: ADME, organism-based; set-up: dose 400 mg/kg, route oral; conditions: in vivo
[29] = Apparent oral clearance in pseudo-germ free Wistar rat at 400 mg/kg, po administered as single dose by HPLC-DAD analysis; format: ADME, organism-based; set-up: dose 400 mg/kg, route oral; conditions: in vivo
Plasma [30] = assay: Drug recovery in Wistar rat plasma at 100 ng/ml by HPLC-DAD analysis; format: ADME, cell-free

## O=c1c2cc(O)c(O)cc2oc2cc(O)c([C@@H]3O[C@H](CO)[C@@H](O)[C@H](O)[C@H]3O)c(O)c12 [MANGIFERIN]
[1]
  AUC(0-inf): 4340 ng·h/mL
[2]
  Drug excretion: metabolite_detected
[3]
  Drug excretion: metabolite_detected
Plasma [4]
  Drug metabolism: metabolite_not_detected
[5]
  Tmax: 2.25 h
Plasma [6]
  Drug metabolism: metabolite_detected
[7]
  Cmax: 2000 ng/mL
[8]
  Drug excretion: metabolite_not_detected
[9]
  Cmax: 452 ng/mL
[10]
  AUC(0-t): 8930 ng·h/mL
[11]
  Drug excretion: metabolite_not_detected
Plasma [12]
  Stability: Stable
[13]
  AUC(0-t): 3800 ng·h/mL
Plasma [14]
  Stability: Stable
[15]
  CL/F: 772 mL/min/kg
[16]
  Drug excretion: metabolite_detected
[17]
  Tmax: 2.89 h
Plasma [18]
  Drug metabolism: metabolite_not_detected
Plasma [19]
  Drug recovery: 75.5%
Plasma [20]
  Drug uptake: Active
Plasma [21]
  Stability: Stable
Plasma [22]
  Drug uptake: Active
Plasma [23]
  Retention_time: 5.5 min
[24]
  MRT inf: 7.77 h
[25]
  Drug excretion: metabolite_detected
Plasma [26]
  Drug recovery: 75.8%
[27]
  half-life: 2.6 h
[28]
  Drug excretion: metabolite_not_detected
[29]
  CL/F: 1690 mL/min/kg
Plasma [30]
  Drug recovery: 78.4%
